Measured values published in patent US20020065314A1, “COMPOSITIONS AND METHOD FOR STIMULATING HAIR GROWTH” (priority 1995, published 2002).
Entries after “also recorded” stand apart in the source; their conditions may differ. Where two headings read alike, the source gives them in different places.

Tests used:
C57BL/KsJ db/+ mice [1] = settings: for hair growth on dorsum (photograph): 31 days post application
Method: The induction of hair loss following treatment with certain anticancer drugs, such as cyclophosphamide or doxorubicin, is well documented (A. Tierney & J. Taylor (1991) Nurs. Stand 5:29-31; R. R. Love, et al. (1989) Cancer 63:604-612; B. W. Cline (1984) Cancer Nurs. 7:221-228). The following experiment was performed to determine the effect of n-butyl cyanoacrylate on hair regrowth in mice pre-treated with cyclophosphamide or doxorubicin. Twenty mice of strain C57BL/KsJ db/+ were peritoneally injected with either cyclophosphamide in PBS (20 mg per kilogram of body weight) or Doxorubicin in PBS (2 mg per kilogram of body weight) for 10 consecutive days. Then a single 10 μl dose of n-butyl cyanoacrylate was applied topically to an area of the shaved dorsum of each animal. Control mice, which were injected with PBS alone, were treated similarly. The effects of hair regrowth were determined both by phototrichogram (macroscopic observation using photography) and by folliculogram (microscopic observation of histological changes in the treated and untreated skin).

[2] = system: skin of mice (C57BL/KsJ db/+ and C57BL/KsJ db/db); test: Hair growth in organ culture of treated skin (ex vivo); parameters: species or system mouse
Method: The shaved dorsal skin of mice (C57BL/KsJ db/+ and C57BL/KsJ db/db) was treated with n-butyl cyanoacrylate by a single topical application at a dose of 10 mg cm^2. One hour later, the skin (0.5×1.0 cm) containing both treated and untreated areas was excised, rinsed in PBS, cultured in Dulbecco's Modified Eagle Medium (Gibco BRL, Gaithersburg, Md.) supplemented with 10% fetal bovine serum (HyClone Laboratories, Logan, Utah) at an atmosphere of […] and 5% CO2, 37° C. Hair growth was recorded by macroscopy.

NIH/3T3 fibroblasts = test: Fibroblast cell proliferation assay with extracts of treated skin; type: cell-based
Method: A single topical application of 20 mg of n-butyl cyanoacrylate was made to an area of shaved skin on the dorsum of strain C57BL/KsJ db/+ mice. At days 10 and 20 post-treatment, skin samples were excised from treated areas. Skin tissue was frozen in dry ice, minced, homogenized in ice-cold PBS, and centrifuged at 15,000 g for 30 minutes at 4° C. The protein concentration of supernatants was adjusted to 1.0 mg/ml by the BioRad assay procedure (BioRad Laboratories, Richmond, Calif.). Skin samples from untreated areas of the same strain were harvested and processed identically. Mouse serum albumin was prepared at a concentration of 1.0 mg/ml in PBS as a control. An aliquot of each supernatant extract was fractionated according to size with a nominal 30 kilo Dalton (kDa) cutoff, and the low molecular weight fraction (≦30 kDa) was included in the fibroblast cell proliferation assay, as follows.
The supernatant extracts from treated and untreated skin samples, and mouse serum albumin control, were added to a quartet of wells in a 96 well plate, and 2-fold serially diluted 11 times. NIH/3T3 fibroblasts (ex American Type Culture Collection, Rockville, Md.) were harvested at about 80% confluence, seeded into each well at a density of 5,000 cells per well, and supplemented with serum-free assay medium (QBSF 56, Quality Biological Inc., Gaithersburg, Md.). Cell proliferation was determined according to the protocol of the CellTitre 96 Non-Radioactive Cell Proliferation Assay (Promega, Madison, Wis.).

C57BL/KsJ db/+ mice [3] = test: Application to full-thickness incisional and excisional wounds; type: in vivo, mouse
Method: An incisional, full-thickness wound, about 2 cm long was made through the dorsal skin of five mice (strain C57BL/KsJ db/+). A single dose of about 10 mg of n-butyl cyanoacrylate (in 10 μl of Nexaband^R Liquid) was applied to the bottom of the wound, and the wound closed with two surgical clips. Control animals which received 10 μl of phosphate buffered saline (PBS: 0.144 g/l KH2PO4, 9.0 g/l NaCl, 0.795 g/l Na2HPO4.7H2O; pH 7.2) were processed identically. During the period of 1-90 days post application, the effect of n-butyl cyanoacrylate treatment was examined by macroscopic observation.
In a group of five C57BL/KsJ db/+ mice, a full-thickness excisional wound was made with a biopunch (6 mm diameter) on the dorsal skin. A single dose of 9 mg of n-butyl cyanoacrylate (in 10 μl of Nexaband^R Liquid) was applied to the bottom of the wound, and the wound was left open. Control animals which received 10 μl of PBS were treated identically.

C57BL/KsJ db/+ mice [4] = test: Subdermal application by subcutaneous injection; type: in vivo, mouse
Method: In another example, 20 μl of n-butyl cyanoacrylate was applied subdermally by subcutaneous injection to a group of C57BL/KsJ db/+ mice.

SMILES: C=C(C#N)C(=O)OCCCC [n-butyl cyanoacrylate]
- time new hair remained (until sacrifice) (C57BL/KsJ db/+ mice [1]; animals pre-treated with cyclophosphamide, after treatment): ≥ 335 days
- time of growing to full length (C57BL/KsJ db/+ mice [1]; mice pre-treated with cyclophosphamide, doxorubicin and PBS, post treatment): 15 to 18 days
- beginning of hair regrowth in treated areas (C57BL/KsJ db/+ mice [1]; mice pre-treated with cyclophosphamide, doxorubicin and PBS, single 10 μl topical dose, post treatment): 8 to 11 days
- hair growth on dorsum (photograph) (C57BL/KsJ db/+ mice [1]; pre-treated with cyclophosphamide): profound growth of new unpigmented gray hairs in the treated area
- hair growth on dorsum (photograph) (C57BL/KsJ db/+ mice [1]; pre-treated with doxorubicin): profound growth of hair with normal pigmentation in the treated area
- hair growth in organ culture (photograph) ([2]; 14 days in organ culture after treatment): hair growth is apparent in the treated area
- time to which hair growth lasted (end of the experiment) ([2]; organ culture, post treatment): ≥ 25 days
- time at which hair growth in the treated area was observed ([2]; organ culture, single topical application 10 mg cm^2 one hour before excision, post treatment): 7 to 12 days
- reproducibility of hair growth induced (mice and rats; 10 mg/10 μl cm^−2, more than 700 normal adult mice and rats, and 80 diabetic (db/db) animals): 100%
- side effect, toxic effect or tumor-like tissue formation after the treatment (mice and rats; in vivo): No any side effect or toxic effect or tumor-like tissue formation after the treatment has been observed except for a mild inflammation shortly after application
- hair growth in normal intact skin, in skin of animals pre-treated with anticancer drugs, and at edges of wounds (mice and rats; two species (rat and mouse), seven strains of mouse): stimulate hair growth
- activity of extract from skin harvested at 20 days post-treatment vs 10 days (NIH/3T3 fibroblasts): more active than the extract from skin harvested at 10 days post-treatment
- activity of protein extracts of treated skin vs extract of untreated skin (NIH/3T3 fibroblasts; skin treated topically with 20 mg, harvested days 10 and 20): more active in stimulating proliferation of NIH/3T3 cells
- activity of low molecular weight fraction (30 KDa or less) of skin extract (NIH/3T3 fibroblasts; treated and untreated skin): no discernible effect on cell proliferation; also recorded: filtration step removes stimulation
- microscopic examination of wound site (C57BL/KsJ db/+ mice [3]; full thickness incisional or excisional wound): induced de novo hair follicle formation in the subcutaneous adipose layer, in the dermis, as well as in the wound site
- hair growth at wound (photograph) (C57BL/KsJ db/+ mice [3]; incision wound, day 17 post treatment): profound hair growth along the linear wound margin
- hair growth at wound (C57BL/KsJ db/+ mice [3]; incisional and excisional wounds): stimulated hair growth along the wound margin
- histology of wound site (C57BL/KsJ db/+ mice [3]; incisional wound, day 17 post treatment): development of many new hair follicles and little scar tissue in the wound site
- histology after subcutaneous injection (C57BL/KsJ db/+ mice [4]; 68 days after subcutaneous injection): development of new hair follicles in the treated site
- histology after subcutaneous injection vs untreated site (C57BL/KsJ db/+ mice [4]; subcutaneous injection, 20 μl): induces de novo hair follicle formation and the thickening of full-thickness skin
